Data from publication PMC11773557, “NADPH-Independent Fluorescent Probe for Live-Cell Imaging of Heme Oxygenase-1” (ACS Sensors, 2025).
Each block holds one molecule with its values, some of them ahead of it. Where a SMILES comes first, the peptide text is derived from it. The star is where a group is joined. NBD = O=[N+]([O-])c1ccc(*)c2nonc12; Ahx = NCCCCCC(=O)O

Experiments:
[1] = biological target: T1, recombinant HO-1 protein with a 6xHis tag (Homo sapiens, UniProt P09601); test: Luminescence titration of NBD-Pn with HO-1; format: binding; conditions: 4.5 μM HO-1, 2 μM probe, pH 7.4 PBS, λex = 475 nm; for increase in fluorescence intensity on addition of HO-1: emission at 526 nm, measured within 1 min
T1 construct: 6xHis
T1 sequence (P09601 1-288): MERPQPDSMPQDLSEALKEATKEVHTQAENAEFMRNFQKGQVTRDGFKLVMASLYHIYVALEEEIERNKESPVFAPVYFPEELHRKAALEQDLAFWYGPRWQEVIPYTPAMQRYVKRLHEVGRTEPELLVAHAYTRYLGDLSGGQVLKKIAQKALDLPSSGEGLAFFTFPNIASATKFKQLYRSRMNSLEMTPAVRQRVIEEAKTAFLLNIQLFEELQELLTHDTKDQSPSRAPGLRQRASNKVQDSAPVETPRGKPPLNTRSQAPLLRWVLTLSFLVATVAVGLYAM
Method: (§1) 4. Photophysical measurements
(§2) All spectra were measured using a stock solution of the probes (1 mM in DMSO) which was diluted with pH 7.4 PBS buffer to the desired concentration. […]
All measurements were conducted using a 700 μL quartz cuvette and within a minute after addition of the analyte. […]

[2] = tested on: A549 cells; test: Flow cytometry analysis of cellular uptake; format: cell-based, human; conditions: 10 μM, time course of 2.5 h
Method: (§3) 37°C for 24 h. Cells were treated with 50 μM hemin, 1 μM ZnPP or DMSO. […]
8. Flow cytometry analysis
A549 cells were first seeded into 12-well plates (1.0 × 10^5 cells/well) and incubated overnight to achieve adherence. Then, 10 μM NBD-P 5 was added, and incubated for different times. The cells were washed twice with cold PBS and harvested by trypsinization, followed by centrifugation (1500 x g, 5.0 min). The obtained cells were re-suspended in PBS and analyzed using flow cytometry (BD […]
(§4) 37°C for 24 h. Cells were treated with 50 μM hemin, 1 μM ZnPP or DMSO. After 24 h incubation, 10 μM NBD-P 5 was added and incubated with the cells for 2 h. The cells were then fixed with 4% polyoxymethylene for 20 min. Afterwards, the nuclei were stained using DAPI for 20 min. […]

[3] = biological target: bovine serum albumin (BSA) (Bos taurus, UniProt P02769); test: Selectivity assay, emission with BSA; format: binding; conditions: 4.5 μM BSA, 2 μM probe, pH 7.4 PBS, emission at 526 nm
Method: as §1, §2
(§5) Selectivity assay was performed by measuring emission of NBD-Pn in pH 7.4 PBS buffer in presence of varying analytes including HO-1, common proteins, amino acids, and biologically relevant ions. All measurements were conducted using a 700 μL quartz cuvette and within a minute after addition of the analyte. […]

[4] = biological target: human serum albumin (HSA) (Homo sapiens, UniProt P02768); test: Selectivity assay, emission with HSA; format: binding; conditions: 4.5 μM HSA, 2 μM probe, pH 7.4 PBS, emission at 526 nm
Method: as §1, §2, §5

[5] = tested on: A549 cells; test: Colocalization experiment with organelle trackers; format: cell-based, human; conditions: 10 μM probe 2 h
Method: 10. Colocalization experiment
A549 cells (8×10^3 cells per well) were seeded into confocal dish and incubated in a CO2 incubator at 37°C for 24 h. After incubation with NBD-P5 (10 μM) for 2 h, cells were co-stained with ER-Tracker red (400 nM) for 20 min, Lyso-Tracker red (60 nM) for 30 min, or Mito-Tracker red (50 nM) for 30 min. Fluorescence images were measured by ZEISS LSM 980 with Airyscan 2 confocal laser scanning

[6] = tested on: HO-1 expression in A549 cells; test: HO-1 ELISA of treated A549 cells; format: cell-based, human; conditions: 24 h, HO-1 ELISA kit, versus DMSO control
Method: 7. Enzyme linked immunosorbent assay (ELISA)
A549 cells (8×10^3 cells per well) were seeded in 6-well plates and incubated in a CO2 incubator at 37°C for 24 h. Cells were treated with 50 μM hemin, 1 μM ZnPP or DMSO. After 24 h incubation, cells were washed with PBS, lysed with NP-40 buffer containing 1.0 mM PMSF, followed by centrifugation (12000 rpm, 5 min) to harvest the supernatant. The assay was carried out by strictly following instructions provided. Absorbance at 450 nm was recorded using the BioTek Synergy-2 Microplate Reader to calculate the HO-1 concentration under different treatments. […]
as §4

[7] = tested on: HO-1 levels in live A549 cells; test: Fluorescence imaging of HO-1 levels with NBD-P5 in treated A549 cells; format: cell-based, human; conditions: A549 cells pretreated 24 h (hemin 50 μM, ZnPP 1 μM), then NBD-P5 10 μM 2 h, confocal imaging
Method: as §3
A549 cells (8×10^3 cells per well) were seeded into confocal dish and incubated in a CO2 incubator at 37°C for 24 h. Cells were treated with 50 μM hemin, 1 μM ZnPP or DMSO. After 24 h incubation, 10 μM NBD-P 5 was added and incubated with the cells for 2 h. The cells were then fixed with 4% polyoxymethylene for 20 min. Afterwards, the nuclei were stained using DAPI for 20 min.
Fluorescence images were measured by ZEISS LSM 980 with Airyscan 2 confocal laser scanning

[8] = tested on: HO-1 expression; conditions: study by Fang and co-workers; cited from earlier work
[9] = biological target: T2, NBD-P5; test: other fluorescence titration; emission of the NBD probe (2 uM, ex 475 nm, read at 526 nm) on addition of protein in solution (HO-1 in increasing concentrations up to 4.5 uM; HSA, BSA at 4.5 uM); measured within a minute after addition; conditions: both partners purified
T2 construct: also called YWFYR-CONH2; NBD-Pn (n = 5); source: synthetic peptide, NBD-Ahx coupled with PyBOP, TFA cleavage, reversed-phase HPLC
T2 peptide: {NBD-Ahx}-YWFYR-NH2

[10] = biological target: T3, NBD-P4; test: as above; conditions: both partners purified
T3 construct: caveolin-1 residues Y97-Y100 (the pentapeptide without arginine 101); also called YWFY-CONH2; NBD-Pn (n = 4); source: synthetic peptide, NBD-Ahx coupled with PyBOP, TFA cleavage, reversed-phase HPLC
T3 peptide: {NBD-Ahx}-YWFY-NH2

Chain of human serum albumin (HSA) (P02768 25-609): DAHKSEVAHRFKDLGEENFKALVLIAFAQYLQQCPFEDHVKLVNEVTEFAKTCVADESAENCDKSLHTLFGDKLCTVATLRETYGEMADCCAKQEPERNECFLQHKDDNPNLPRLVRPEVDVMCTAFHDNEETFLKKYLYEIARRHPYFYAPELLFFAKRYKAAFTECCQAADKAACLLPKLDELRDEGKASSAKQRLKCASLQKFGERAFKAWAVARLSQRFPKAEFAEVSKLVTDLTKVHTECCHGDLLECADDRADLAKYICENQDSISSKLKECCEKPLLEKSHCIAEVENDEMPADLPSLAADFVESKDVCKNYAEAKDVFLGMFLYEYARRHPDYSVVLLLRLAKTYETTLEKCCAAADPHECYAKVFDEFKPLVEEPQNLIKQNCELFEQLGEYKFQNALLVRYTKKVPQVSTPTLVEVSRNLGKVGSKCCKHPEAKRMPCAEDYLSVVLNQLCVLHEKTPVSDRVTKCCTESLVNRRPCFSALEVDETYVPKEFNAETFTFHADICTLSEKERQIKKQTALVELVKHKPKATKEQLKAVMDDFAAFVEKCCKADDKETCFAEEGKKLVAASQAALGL
Chain of bovine serum albumin (BSA) (P02769 25-607): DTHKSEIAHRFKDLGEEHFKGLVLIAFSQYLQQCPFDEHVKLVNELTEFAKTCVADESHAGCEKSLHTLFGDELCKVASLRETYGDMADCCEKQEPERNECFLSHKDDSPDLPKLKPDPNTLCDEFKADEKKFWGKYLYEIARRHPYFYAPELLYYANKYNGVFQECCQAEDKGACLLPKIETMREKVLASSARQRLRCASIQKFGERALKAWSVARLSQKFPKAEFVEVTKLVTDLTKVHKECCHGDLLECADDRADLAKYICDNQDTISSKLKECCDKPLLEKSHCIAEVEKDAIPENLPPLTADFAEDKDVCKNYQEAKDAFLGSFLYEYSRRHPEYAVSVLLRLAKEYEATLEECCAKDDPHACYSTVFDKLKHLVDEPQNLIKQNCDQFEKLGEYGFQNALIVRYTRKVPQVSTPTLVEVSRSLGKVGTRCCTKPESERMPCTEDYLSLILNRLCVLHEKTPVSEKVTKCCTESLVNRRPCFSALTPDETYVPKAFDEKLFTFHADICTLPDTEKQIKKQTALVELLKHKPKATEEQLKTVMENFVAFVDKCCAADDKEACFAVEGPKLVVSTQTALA

Molecule: NC(=O)[C@H](Cc1ccc(O)cc1)NC(=O)[C@H](Cc1ccccc1)NC(=O)[C@H](Cc1c[nH]c2ccccc12)NC(=O)[C@H](Cc1ccc(O)cc1)NC(=O)CCCCCNc1ccc([N+](=O)[O-])c2nonc12 [NBD-P4] (HELM PEPTIDE1{[O=[N+]([O-])c1ccc([*:2])c2nonc12].[O=C(CCCCCN[*:1])[*:2]].Y.W.F.Y.[am]}$$$$V2.0)
- increase in fluorescence intensity on addition of HO-1 [1]: 6 fold

Molecule: N=C(N)NCCC[C@H](NC(=O)[C@H](Cc1ccc(O)cc1)NC(=O)[C@H](Cc1ccccc1)NC(=O)[C@H](Cc1c[nH]c2ccccc12)NC(=O)[C@H](Cc1ccc(O)cc1)NC(=O)CCCCCNc1ccc([N+](=O)[O-])c2nonc12)C(N)=O [NBD-P5] (HELM PEPTIDE1{[O=[N+]([O-])c1ccc([*:2])c2nonc12].[O=C(CCCCCN[*:1])[*:2]].Y.W.F.Y.R.[am]}$$$$V2.0)
- uptake by A549 cells [2]: increased rapidly in the first 1 h
- fluorescence change on addition of BSA [3]: small fluorescence increase
- fluorescence change on addition of HSA [4]: small fluorescence increase
- Pearson's correlation coefficient with ER-Tracker red ([5]; ER-Tracker red 400 nM 20 min, ImageJ): 0.97
- colocalization with either Lyso-Tracker or Mito-Tracker ([5]; Lyso-Tracker red 60 nM or Mito-Tracker red 50 nM 30 min): not as significant as that with ER-Tracker
- blue shift in fluorescence wavelength maxima on addition of HO-1 [1]: 24 nm
- increase in fluorescence intensity on addition of HO-1 [1]: 9 fold

Molecule: C=CC1=C(C)c2cc3[n-]c(cc4[n-]c(cc5nc(cc1n2)C(C)=C5C=C)c(C)c4CCC(=O)O)c(CCC(=O)O)c3C.[Zn+2] [ZnPP, zinc(II) protoporphyrin]
- HO-1 level relative to DMSO control ([6]; 1 μM): 0.89 fold
- NBD-P5 fluorescence in treated cells compared with control cells [7]: relatively weaker fluorescence signal

Molecule: CC(C)(C)c1cc(O)ccc1O [tBHQ]
- upregulation of HO-1 [8]: about 1.6 fold

Molecule: hemin
- upregulation of HO-1 expression ([6]; 50 μM): around 1.53 fold
- NBD-P5 fluorescence in treated cells compared with control cells [7]: significantly stronger green fluorescence

- fold increase in fluorescence intensity of the probe with 4.5 uM HO-1 [9]: 9 fold
- fold increase in fluorescence intensity of the probe with HO-1 [10]: 6 fold
B1: Heme oxygenase-1 (enzyme)
chain: MERPQPDSMPQDLSEALKEATKEVHTQAENAEFMRNFQKGQVTRDGFKLVMASLYHIYVALEEEIERNKESPVFAPVYFPEELHRKAALEQDLAFWYGPRWQEVIPYTPAMQRYVKRLHEVGRTEPELLVAHAYTRYLGDLSGGQVLKKIAQKALDLPSSGEGLAFFTFPNIASATKFKQLYRSRMNSLEMTPAVRQRVIEEAKTAFLLNIQLFEELQELLTHDTKDQSPSRAPGLRQRASNKVQDSAPVETPRGKPPLNTRSQAPLLRWVLTLSFLVATVAVGLYAM
